Laboratory results published in patent US10760110B2, “Antibiotic testing and screening system” (priority 2017, dated 2020).
Like-named read-outs stand apart in the source and are kept apart here.

System: K. pneumoniae NVT1001 strains with ESBL or AmpC β-lactamase plasmids
Assay: Etest MIC of β-lactams, OmpK35/36 loss, ΔramR and/or extended-spectrum β-lactamase and AmpC β-lactamase (Table 8)
Assay type: cell-based, Klebsiella pneumoniae
Details: Klebsiella pneumoniae
Procedure: DNA fragments of the resistance genes along with their flanking regions were amplified from clinical plasmids via PCR with specific primer pairs. The resulting PCR fragments were digested and then cloned into the plasmid pACYC177 or pACYC184. The resulting plasmids were then transformed into K. pneumoniae strain NVT1001 via electroporation. The recombinant bacteria were plated onto LB agar plates containing kanamycin (50 mg/L) or chloramphenicol (50 mg/L), and the presence of the cloned gene was confirmed via PCR and DNA sequencing.
The MICs of antibiotics were determined using the Etest (Biodisk AB, Sweden) according to the manufacturer's instructions. The MICs from the Etest, which fall between standard two-fold dilutions, were rounded up to the next highest two-fold value. The MICs of ceftazidime and cefotaxime against K. pneumoniae NVT1001 harbouring the pACYC177 plasmid with blaOXA-48 were further determined using a broth microdilution test according to the recommendations of the CLSI,^25 and the results were interpreted according to the breakpoints established by the CLSI in 2017.^25 Meanwhile, due to the lack of CLSI breakpoints in 2016 and 2017, the results for cephalothin were interpreted according to the breakpoints established by the CLSI in 2015,^26 and the results for moxifloxacin were interpreted according to the breakpoints established by the EUCAST in 2017.^27

[1] = CMY-2 on pACYC177, WT (NVT1001), read-out: MIC
[2] = CMY-2 on pACYC177, Δ35 (ΔompK35 mutant)
[3] = CMY-2 on pACYC177, Δ35/36 (ΔompK35/36 mutant)
[4] = CMY-2 on pACYC177, Δ36 (ΔompK36 mutant)
[5] = CMY-2 on pACYC177, ΔramR mutant
[6] = CMY-2 on pACYC177, ΔramRΔ35 (ΔramRΔompK35 mutant)
[7] = CMY-2 on pACYC177, ΔramRΔ35/36 (ΔramRΔompK35/36 mutant)
[8] = CMY-2 on pACYC177, ΔramRΔ36 (ΔramRΔompK36 mutant)
[9] = CTX-M-14 on pACYC177, WT (NVT1001), read-out: MIC
[10] = CTX-M-14 on pACYC177, Δ35 (ΔompK35 mutant)
[11] = CTX-M-14 on pACYC177, Δ35/36 (ΔompK35/36 mutant)
[12] = CTX-M-14 on pACYC177, Δ36 (ΔompK36 mutant)
[13] = CTX-M-14 on pACYC177, ΔramR mutant
[14] = CTX-M-14 on pACYC177, ΔramRΔ35 (ΔramRΔompK35 mutant)
[15] = CTX-M-14 on pACYC177, ΔramRΔ35/36 (ΔramRΔompK35/36 mutant)
[16] = CTX-M-14 on pACYC177, ΔramRΔ36 (ΔramRΔompK36 mutant)
[17] = CTX-M-15 on pACYC177, WT (NVT1001), read-out: MIC
[18] = CTX-M-15 on pACYC177, Δ35 (ΔompK35 mutant)
[19] = CTX-M-15 on pACYC177, Δ35/36 (ΔompK35/36 mutant)
[20] = CTX-M-15 on pACYC177, Δ36 (ΔompK36 mutant)
[21] = CTX-M-15 on pACYC177, ΔramR mutant
[22] = CTX-M-15 on pACYC177, ΔramRΔ35 (ΔramRΔompK35 mutant)
[23] = CTX-M-15 on pACYC177, ΔramRΔ35/36 (ΔramRΔompK35/36 mutant)
[24] = CTX-M-15 on pACYC177, ΔramRΔ36 (ΔramRΔompK36 mutant)
[25] = DHA-1-AmpR on pACYC177, WT (NVT1001), read-out: MIC
[26] = DHA-1-AmpR on pACYC177, Δ35 (ΔompK35 mutant)
[27] = DHA-1-AmpR on pACYC177, Δ35/36 (ΔompK35/36 mutant)
[28] = DHA-1-AmpR on pACYC177, Δ36 (ΔompK36 mutant)
[29] = DHA-1-AmpR on pACYC177, ΔramR mutant
[30] = DHA-1-AmpR on pACYC177, ΔramRΔ35 (ΔramRΔompK35 mutant)
[31] = DHA-1-AmpR on pACYC177, ΔramRΔ35/36 (ΔramRΔompK35/36 mutant)
[32] = DHA-1-AmpR on pACYC177, ΔramRΔ36 (ΔramRΔompK36 mutant)
[33] = SHV-12 on pACYC177, WT (NVT1001), read-out: MIC
[34] = SHV-12 on pACYC177, Δ35 (ΔompK35 mutant)
[35] = SHV-12 on pACYC177, Δ35/36 (ΔompK35/36 mutant)
[36] = SHV-12 on pACYC177, Δ36 (ΔompK36 mutant)
[37] = SHV-12 on pACYC177, ΔramR mutant
[38] = SHV-12 on pACYC177, ΔramRΔ35 (ΔramRΔompK35 mutant)
[39] = SHV-12 on pACYC177, ΔramRΔ35/36 (ΔramRΔompK35/36 mutant)
[40] = SHV-12 on pACYC177, ΔramRΔ36 (ΔramRΔompK36 mutant)
[41] = no supplemental plasmid, WT (NVT1001), read-out: MIC
[42] = no supplemental plasmid, Δ35 (ΔompK35 mutant)
[43] = no supplemental plasmid, Δ35/36 (ΔompK35/36 mutant)
[44] = no supplemental plasmid, Δ36 (ΔompK36 mutant)
[45] = no supplemental plasmid, ΔramR mutant
[46] = no supplemental plasmid, ΔramRΔ35 (ΔramRΔompK35 mutant)
[47] = no supplemental plasmid, ΔramRΔ35/36 (ΔramRΔompK35/36 mutant)
[48] = no supplemental plasmid, ΔramRΔ36 (ΔramRΔompK36 mutant)

`CC(C)(O/N=C(\C(=O)N[C@@H]1C(=O)N2C(C(=O)[O-])=C(C[n+]3ccccc3)CS[C@H]12)c1csc(N)n1)C(=O)O` [Ceftazidime] showed an MIC [1] greater than 256 µg/mL, an MIC [2] greater than 256 µg/mL and an MIC [3] greater than 256 µg/mL. The MIC [4] was greater than 256 µg/mL, the MIC [5] was greater than 256 µg/mL and the MIC [6] was greater than 256 µg/mL. For the same molecule, the MIC [7] was greater than 256 µg/mL, the MIC [8] was greater than 256 µg/mL and the MIC [9] was 1 µg/mL. It also gave an MIC [10] of 4 µg/mL, an MIC [11] of 8 µg/mL and an MIC [12] of 2 µg/mL. For the same molecule, the MIC [13] was 8 µg/mL, the MIC [14] was 8 µg/mL and the MIC [15] was 16 µg/mL. For the same molecule, the MIC [16] was 8 µg/mL, the MIC [17] was 64 µg/mL and the MIC [18] was greater than 256 µg/mL. The MIC [19] was greater than 256 µg/mL, the MIC [20] was 64 µg/mL and the MIC [21] was 256 µg/mL. For the same molecule, the MIC [22] was greater than 256 µg/mL, the MIC [23] was greater than 256 µg/mL and the MIC [24] was greater than 256 µg/mL. The MIC [25] was 16 µg/mL, the MIC [26] was 128 µg/mL and the MIC [27] was greater than 256 µg/mL. For the same molecule, the MIC [28] was 32 µg/mL, the MIC [29] was 64 µg/mL and the MIC [30] was 64 µg/mL. The MIC [31] was 128 µg/mL, the MIC [32] was 64 µg/mL and the MIC [33] was 64 µg/mL. The MIC [34] was greater than 256 µg/mL, the MIC [35] was greater than 256 µg/mL and the MIC [36] was 128 µg/mL. The MIC [37] was greater than 256 µg/mL, the MIC [38] was greater than 256 µg/mL and the MIC [39] was greater than 256 µg/mL. For the same molecule, the MIC [40] was greater than 256 µg/mL, the MIC [41] was 0.25 µg/mL and the MIC [42] was 0.5 µg/mL. The MIC [43] was 1 µg/mL, the MIC [44] was 0.5 µg/mL and the MIC [45] was 2 µg/mL. It also gave an MIC [46] of 2 µg/mL, an MIC [47] of 2 µg/mL and an MIC [48] of 2 µg/mL.

For `C[C@@H](O)[C@H]1C(=O)N2C(C(=O)O)=C(S[C@@H]3CN[C@H](C(=O)Nc4cccc(C(=O)O)c4)C3)[C@H](C)[C@H]12` [Ertapenem], the MIC [1] was 1 µg/mL, the MIC [2] was 1 µg/mL and the MIC [3] was greater than 32 µg/mL. The MIC [4] was 4 µg/mL, the MIC [5] was 1 µg/mL and the MIC [6] was 1 µg/mL. For the same molecule, the MIC [7] was greater than 32 µg/mL, the MIC [8] was greater than 32 µg/mL and the MIC [9] was 0.125 µg/mL. The MIC [10] was 0.25 µg/mL, the MIC [11] was 8 µg/mL and the MIC [12] was 0.25 µg/mL. For the same molecule, the MIC [13] was 0.25 µg/mL, the MIC [14] was 0.25 µg/mL and the MIC [15] was 16 µg/mL. The MIC [16] was 16 µg/mL, the MIC [17] was 0.5 µg/mL and the MIC [18] was 0.5 µg/mL. The MIC [19] was greater than 32 µg/mL, the MIC [20] was 0.5 µg/mL and the MIC [21] was 0.5 µg/mL. It also gave an MIC [22] of 0.5 µg/mL, an MIC [23] greater than 32 µg/mL and an MIC [24] greater than 32 µg/mL. It also gave an MIC [25] of 1 µg/mL, an MIC [26] of 1 µg/mL and an MIC [27] greater than 32 µg/mL. For the same molecule, the MIC [28] was 1 µg/mL, the MIC [29] was 1 µg/mL and the MIC [30] was 1 µg/mL. The MIC [31] was greater than 32 µg/mL, the MIC [32] was greater than 32 µg/mL and the MIC [33] was 0.06 µg/mL. The MIC [34] was 0.06 µg/mL, the MIC [35] was 4 µg/mL and the MIC [36] was 0.06 µg/mL. It also gave an MIC [37] of 0.125 µg/mL, an MIC [38] of 0.125 µg/mL and an MIC [39] of 4 µg/mL. It also gave an MIC [40] of 4 µg/mL, an MIC [41] of 0.015 µg/mL and an MIC [42] of 0.03 µg/mL. For the same molecule, the MIC [43] was 2 µg/mL, the MIC [44] was 0.03 µg/mL and the MIC [45] was 0.125 µg/mL. It also gave an MIC [46] of 0.125 µg/mL, an MIC [47] of 4 µg/mL and an MIC [48] of 4 µg/mL.

Molecule `C[C@@H](O)[C@H]1C(=O)N2C(C(=O)O)=C(SCCN=CN)C[C@H]12` [Imipenem] has an MIC [1] of 1 µg/mL, an MIC [2] of 1 µg/mL and an MIC [3] greater than 32 µg/mL. For the same molecule, the MIC [4] was 4 µg/mL, the MIC [5] was 1 µg/mL and the MIC [6] was 1 µg/mL. For the same molecule, the MIC [7] was 32 µg/mL, the MIC [8] was 32 µg/mL and the MIC [9] was 0.5 µg/mL. It also gave an MIC [10] of 0.5 µg/mL, an MIC [11] of 1 µg/mL and an MIC [12] of 0.5 µg/mL. The MIC [13] was 0.25 µg/mL, the MIC [14] was 0.25 µg/mL and the MIC [15] was 0.5 µg/mL. It also gave an MIC [16] of 0.5 µg/mL, an MIC [17] of 0.5 µg/mL and an MIC [18] of 0.5 µg/mL. For the same molecule, the MIC [19] was 4 µg/mL, the MIC [20] was 0.5 µg/mL and the MIC [21] was 0.5 µg/mL. For the same molecule, the MIC [22] was 0.25 µg/mL, the MIC [23] was 2 µg/mL and the MIC [24] was 2 µg/mL. The MIC [25] was 0.5 µg/mL, the MIC [26] was 0.5 µg/mL and the MIC [27] was 32 µg/mL. The MIC [28] was 0.5 µg/mL, the MIC [29] was 0.25 µg/mL and the MIC [30] was 0.25 µg/mL. For the same molecule, the MIC [31] was 16 µg/mL, the MIC [32] was 16 µg/mL and the MIC [33] was 0.5 µg/mL. For the same molecule, the MIC [34] was 0.5 µg/mL, the MIC [35] was 1 µg/mL and the MIC [36] was 0.5 µg/mL. It also gave an MIC [37] of 0.25 µg/mL, an MIC [38] of 0.25 µg/mL and an MIC [39] of 1 µg/mL. For the same molecule, the MIC [40] was 0.5 µg/mL, the MIC [41] was 0.5 µg/mL and the MIC [42] was 0.5 µg/mL. It also gave an MIC [43] of 0.5 µg/mL, an MIC [44] of 0.5 µg/mL and an MIC [45] of 0.25 µg/mL. It also gave an MIC [46] of 0.25 µg/mL, an MIC [47] of 0.5 µg/mL and an MIC [48] of 0.5 µg/mL.
